Source: patent US20220133702A1, “CYSTIC FIBROSIS TRANSMEMBRANE CONDUCTANCE REGULATOR MODULATORS FOR TREATING AUTOSOMAL DOMINANT POLYCYSTIC KIDNEY DISEASE” (The Johns Hopkins University, priority 2020, published 2022)

Key:
cAMP in PN cells = assay: Cyclic AMP enzyme immunoassay in cells; assay type: cell-based, mouse; conditions: for increase of cAMP activity: PN cells treated with forskolin or IBMX
Method: FIG. 4A, FIG. 4B, FIG. 4C, FIG. 4D, and FIG. 4E show (FIG. 4A-FIG. 4B) cAMP levels are reduced by VX-809. (FIG. 4A) cAMP levels in mouse tissue were reduced by VX-809. The kidney samples (n=6) analyzed were taken from those depicted in FIG. 1. (FIG. 4B) Confluent PN and PH cells were treated with VX-809 (10 μM) or DMSO for 16 hand then treated with forskolin (100 μM) for 30 min before the cells were harvested for the assay. Columns represent means±SEM. Statistical analysis was performed using a two-tailed Student's t-test. Each set of data is from three individual wells; Note that resting cAMP is greater in PN vs PH cells as previously shown (25). Also note that forskolin caused a large increase in cAMP. A smaller increase occurred with IBMX. However, the increase induced by forskolin alone was similar to that by IBMX plus forskolin. […] (FIG. 4C, FIG. 4D, and FIG. 4E) Adenylyl cyclase expression. (FIG. 4C) Western blot showing the expression of adenylyl cyclase (AC) 6 and AC3 in treated and control PN cells. (FIG. 4D-FIG. 4E) Columns represent means±SEM of the AC3 and AC6 expression. The data were analyzed by non-parametric t-test. The experiment was repeated four times. For all graphs, *P<0.05, **P<0.01, and ***P<0.001;
It has been shown previously in both animal and cell culture models of ADPKD that cells lacking functional PC1 have elevated cAMP levels when compared to normal. To assess the effect of CFTR correctors, cAMP activity was measured in PC1 conditional knockout mouse kidneys and in PN cells that were either left untreated or treated with VX-809. […] Cells were treated with forskolin, which increased cAMP levels drastically (FIG. 4B). It should be noted that VX-809 reduced the forskolin-induced increase in cAMP, indicating a direct action of VX-809 on adenylyl cyclase activity. […] Treating PN cells with forskolin or IBMX (FIG. 4B) increased the cAMP activity by approximately 10-fold.
Cyclic AMP assay. Confluent cells were treated with VX-809 (10 μM) or DMSO for 16 h before being harvested for assay. Cyclic AMP levels were measured with a direct cAMP Enzyme Immunoassay Kit (Sigma, #CA200) according to the manufacturer's protocol. The results are expressed as pmole/ml. Statistical analysis was performed using a two-tailed Student's t-test.

[1] = system: Hsp27, Hsp70, and Hsp90 in PN cells; assay: Disappearance of Hsps after translation block with cycloheximide; assay type: cell-based, mouse; conditions: cycloheximide 25 μM alone, over 8 h
Method: FIG. 9A, FIG. 9B, FIG. 9C, FIG. 9D, FIG. 9E, FIG. 9F, FIG. 9G, and FIG. 9H show Hsp27, HSp70, and Hsp90 expression in PN cells treated with VX-809 and/or cycloheximide. (A) Pkd1 null (PN) cells were treated with VX-809 (10 μM) and/or with cycloheximide (25 μM) for indicated time points before being harvested for the assay. (FIG. 9A) Western blot showing expression of Hsp27, Hsp70, and Hsp90 in VX-809-(16 h), cycloheximide-treated, or control PN cells. ((FIG. 9B. (FIG. 9C, and (FIG. 9D) Columns represent averages±standard errors of Hsp27, Hsp70, and Hsp90 expression in cells treated with VX-809 and/or cycloheximide. ((FIG. 9E) Western blot showing expression of Hsp27, Hsp70, and Hsp90 in PN cells treated with VX-809+cycloheximide or control PN cells. ((FIG. 9F, FIG. 9G, and FIG. 9H) Columns represent averages±standard errors of Hsp27, Hsp70, and Hsp90 expression in cells treated only with cycloheximide or in control PN cells. Data were analyzed by non-parametric t-test. The experiments were repeated 3-5 times. *P<0.05, **P<0.01;
To gain more insight into the mechanism whereby VX-809 alters Hsp protein levels, translation was inhibited by using cycloheximide and the disappearance of the three Hsps was monitored. […] Hsp90 was reduced by approximately 25%, and Hsp27 was unchanged.

Row | Structure (SMILES) | increase of cAMP activity (cAMP in PN cells) | steady-state levels of each of the Hsps [1] | elevation of cAMP activity (cAMP in PN cells; forskolin, as stated at the end of Example 4) [fold]
1 | CC(C)Cn1c(=O)n(C)c(=O)c2[nH]cnc21 [IBMX, 3-isobutyl-1-methylxanthine] | approximately 10 fold | – | –
2 | C[C@@H]1C[C@@H]([C@H](O)CC2CC(=O)NC(=O)C2)C(=O)[C@@H](C)C1 [cycloheximide] | – | unchanged | –
3 | C=C[C@@]1(C)CC(=O)[C@]2(O)[C@@]3(C)[C@@H](O)CCC(C)(C)[C@@H]3[C@H](O)[C@H](OC(C)=O)[C@@]2(C)O1 [forskolin] | approximately 10 fold | – | ~500
